Source: the supplement of paper PMC10307832

Legend:
Assay in all cases: relative viability (nuclei count vs DMSO), 5 days (fraction); higher = more cells survive
[1] = test system: 201T
Procedure, shortened: (§1)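 Relative viability equals treated-well nuclei counts divided by vehicle-well nuclei counts. Counts came from 4× images of lung cancer cell lines grown in 1536-well plates for 5 days after pin-tool dosing on the day after seeding. Dosing used one drug alone or a fixed anchor-drug dose plus five library-drug doses (not always all listed) in √10 steps, and values are medians of duplicate plates.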

[2] = test system: HCC-78
Procedure, shortened: as §1

[3] = test system: HARA
Procedure, shortened: as §1

[4] = test system: NCI-H2023
Procedure, shortened: as §1

[5] = test system: NCI-H2009
Procedure, shortened: as §1

[6] = test system: NCI-H460
Procedure, shortened: as §1

[7] = test system: NCI-H1993
Procedure, shortened: as §1

[8] = test system: LCLC-97TM1
Procedure, shortened: as §1

[9] = test system: HCC-15
Procedure, shortened: as §1

[10] = test system: LCLC-103H
Procedure, shortened: as §1

[11] = test system: HCC-44
Procedure, shortened: as §1

[12] = test system: RERF-LC-KJ
Procedure, shortened: as §1

[13] = test system: A-427
Procedure, shortened: as §1

[14] = test system: LOU-NH91
Procedure, shortened: as §1

[15] = test system: NCI-H1650
Procedure, shortened: as §1

[16] = test system: SW 1573
Procedure, shortened: as §1

[17] = test system: ChaGo-K-1
Procedure, shortened: as §1

[18] = test system: NCI-H1734
Procedure, shortened: as §1

[19] = test system: NCI-H2126
Procedure, shortened: as §1

[20] = test system: NCI-H650
Procedure, shortened: as §1

[21] = test system: HCC-366
Procedure, shortened: as §1

[22] = test system: COR-L23
Procedure, shortened: as §1

[23] = test system: NCI-H441
Procedure, shortened: as §1

## O=c1[nH]c2ccccc2n1C1CCN(CCCC(c2ccc(F)cc2)c2ccc(F)cc2)CC1 [Pimozide] + Nc1ncn([C@H]2C[C@H](O)[C@@H](CO)O2)c(=O)n1 [Decitabine] (partner 2 µM)
[1]; first compound 0.08 µM
  relative viability: 0.827
[1]; first compound 0.253 µM
  relative viability: 0.846
[1]; first compound 0.8 µM
  relative viability: 0.829
[1]; first compound 2.53 µM
  relative viability: 0.844
[1]; first compound 8 µM
  relative viability: 0.711
[2]; first compound 0.08 µM
  relative viability: 0.735
[2]; first compound 0.8 µM
  relative viability: 0.671
[2]; first compound 2.53 µM
  relative viability: 0.671
[2]; first compound 8 µM
  relative viability: 0.702
[3]; first compound 0.08 µM
  relative viability: 0.535
[3]; first compound 0.253 µM
  relative viability: 0.586
[3]; first compound 0.8 µM
  relative viability: 0.476
[3]; first compound 2.53 µM
  relative viability: 0.528
[3]; first compound 8 µM
  relative viability: 0.617
[4]; first compound 0.08 µM
  relative viability: 0.229
[4]; first compound 0.253 µM
  relative viability: 0.273
[4]; first compound 0.8 µM
  relative viability: 0.196
[4]; first compound 2.53 µM
  relative viability: 0.247
[4]; first compound 8 µM
  relative viability: 0.284
[5]; first compound 0.08 µM
  relative viability: 0.442
[5]; first compound 0.253 µM
  relative viability: 0.374
[5]; first compound 0.8 µM
  relative viability: 0.327
[5]; first compound 2.53 µM
  relative viability: 0.436
[5]; first compound 8 µM
  relative viability: 0.412
[6]; first compound 0.08 µM
  relative viability: 0.553
[6]; first compound 0.253 µM
  relative viability: 0.494
[6]; first compound 0.8 µM
  relative viability: 0.462
[6]; first compound 2.53 µM
  relative viability: 0.521
[6]; first compound 8 µM
  relative viability: 0.45
[7]; first compound 0.08 µM
  relative viability: 0.561
[7]; first compound 0.253 µM
  relative viability: 0.56
[7]; first compound 0.8 µM
  relative viability: 0.566
[7]; first compound 2.53 µM
  relative viability: 0.556
[7]; first compound 8 µM
  relative viability: 0.642
[8]; first compound 0.08 µM
  relative viability: 0.229
[8]; first compound 0.253 µM
  relative viability: 0.245
[8]; first compound 0.8 µM
  relative viability: 0.183
[8]; first compound 2.53 µM
  relative viability: 0.221
[8]; first compound 8 µM
  relative viability: 0.228
[9]; first compound 0.08 µM
  relative viability: 0.658
[9]; first compound 0.253 µM
  relative viability: 0.629
[9]; first compound 0.8 µM
  relative viability: 0.452
[9]; first compound 2.53 µM
  relative viability: 0.551
[9]; first compound 8 µM
  relative viability: 0.66
[10]; first compound 0.08 µM
  relative viability: 0.765
[10]; first compound 0.253 µM
  relative viability: 0.712
[10]; first compound 0.8 µM
  relative viability: 0.674
[10]; first compound 2.53 µM
  relative viability: 0.691
[10]; first compound 8 µM
  relative viability: 0.707
[11]; first compound 0.08 µM
  relative viability: 1.01
[11]; first compound 0.253 µM
  relative viability: 0.983
[11]; first compound 0.8 µM
  relative viability: 0.843
[11]; first compound 2.53 µM
  relative viability: 0.935
[11]; first compound 8 µM
  relative viability: 0.919
[12]; first compound 0.08 µM
  relative viability: 0.674
[12]; first compound 0.253 µM
  relative viability: 0.562
[12]; first compound 0.8 µM
  relative viability: 0.63
[12]; first compound 2.53 µM
  relative viability: 0.401
[12]; first compound 8 µM
  relative viability: 0.544
[13]; first compound 0.08 µM
  relative viability: 0.527
[13]; first compound 0.253 µM
  relative viability: 0.583
[13]; first compound 0.8 µM
  relative viability: 0.606
[13]; first compound 2.53 µM
  relative viability: 0.479
[13]; first compound 8 µM
  relative viability: 0.57
[14]; first compound 0.08 µM
  relative viability: 0.64
[14]; first compound 0.253 µM
  relative viability: 0.818
[14]; first compound 0.8 µM
  relative viability: 0.778
[14]; first compound 2.53 µM
  relative viability: 0.829
[14]; first compound 8 µM
  relative viability: 0.866
[15]; first compound 0.08 µM
  relative viability: 0.287
[15]; first compound 0.253 µM
  relative viability: 0.485
[15]; first compound 0.8 µM
  relative viability: 0.315
[15]; first compound 2.53 µM
  relative viability: 0.404
[15]; first compound 8 µM
  relative viability: 0.405
[16]; first compound 0.08 µM
  relative viability: 0.555
[16]; first compound 0.253 µM
  relative viability: 0.52
[16]; first compound 0.8 µM
  relative viability: 0.499
[16]; first compound 2.53 µM
  relative viability: 0.371
[16]; first compound 8 µM
  relative viability: 0.384
[17]; first compound 0.08 µM
  relative viability: 0.515
[17]; first compound 0.253 µM
  relative viability: 0.453
[17]; first compound 0.8 µM
  relative viability: 0.5
[17]; first compound 2.53 µM
  relative viability: 0.546
[17]; first compound 8 µM
  relative viability: 0.546
[18]; first compound 0.08 µM
  relative viability: 0.51
[18]; first compound 0.253 µM
  relative viability: 0.489
[18]; first compound 0.8 µM
  relative viability: 0.525
[18]; first compound 2.53 µM
  relative viability: 0.431
[18]; first compound 8 µM
  relative viability: 0.509
[19]; first compound 0.08 µM
  relative viability: 0.613
[19]; first compound 0.253 µM
  relative viability: 0.576
[19]; first compound 0.8 µM
  relative viability: 0.549
[19]; first compound 2.53 µM
  relative viability: 0.557
[19]; first compound 8 µM
  relative viability: 0.62
[20]; first compound 0.08 µM
  relative viability: 0.278
[20]; first compound 0.253 µM
  relative viability: 0.33
[20]; first compound 0.8 µM
  relative viability: 0.342
[20]; first compound 2.53 µM
  relative viability: 0.321
[20]; first compound 8 µM
  relative viability: 0.275
[21]; first compound 0.08 µM
  relative viability: 0.324
[21]; first compound 0.253 µM
  relative viability: 0.34
[21]; first compound 0.8 µM
  relative viability: 0.285
[21]; first compound 2.53 µM
  relative viability: 0.346
[21]; first compound 8 µM
  relative viability: 0.296
[22]; first compound 0.08 µM
  relative viability: 0.409
[22]; first compound 0.253 µM
  relative viability: 0.446
[22]; first compound 0.8 µM
  relative viability: 0.411
[22]; first compound 2.53 µM
  relative viability: 0.424
[22]; first compound 8 µM
  relative viability: 0.495
[23]; first compound 0.08 µM
  relative viability: 0.208
[23]; first compound 0.253 µM
  relative viability: 0.255
[23]; first compound 0.8 µM
  relative viability: 0.234
[23]; first compound 2.53 µM
  relative viability: 0.236
[23]; first compound 8 µM
  relative viability: 0.241
